The results in this text go back to patent US20050239751A1, “Heterocyclic anti-viral compounds comprising metabolizable moieties and their uses” (Rigel Pharmaceuticals, Inc., priority 2004, published 2005).

Read-outs that look alike come from different tables or passages of the source.

Data set [1] deals with HCV replicon in 5-2 Luc replicon-comprising cells. As to the kind of experiment: HCV replicon assay (luciferase; HEPC_REPLICON-LUC). Type of data set: cell-based, Hepatitis C virus. Conditions: Hepatitis C virus. The essentials: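 Huh7-derived 5-2 Luc HCV replicon cells, seeded 24 h beforehand, received prodrug at various concentrations for a further 24-48 hours at 37 °C. Luciferase emission was read with Bright-Glo, and IC50 taken as the concentration giving 50% reduction in emission, reported as + (≤10 μM) or − (>10 μM).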
A general note: A replicon is a self-replicating genome or part of one, used to study replication in cells.

In data set [2] the test system is HCV NS5A protein in 9-13 replicon cells. As to the kind of experiment: Replicon quantitative Western blot assay (HEPC_REPLICON-ICWESTERN). Type of data set: cell-based. Conditions: Hepatitis C virus; Table 14; read-out: HEPC_REPLICON-ICWESTERN Result Value. Here is the method: Alternatively, the inhibitory activity of the metabolically active agents of the prodrugs can be confirmed using a quantitative Western immunoblot assay utilizing antibodies specific for HCV non-structural proteins, such as NS3, NS4A NS5A and NS5B. In one embodiment of this assay, replicon cells are treated with varying concentrations of test prodrug to determine the concentration of the metabolically active agent of the test prodrug that yields a 50% reduction in the amount of a non-structural protein produced as compared to a control sample (IC50). A single non-structural protein may be quantified or multiple non-structural proteins may be quantified. Antibodies suitable for carrying out such immunoblot assays are available commercially (e.g., from BIODESIGN International, Saco, Me.).
Certain prodrugs of the invention, which may inhibit HCV translation or replication prior to metablism and/or are metabolized into active agents, were also tested for their ability to inhibit HCV replication using a quantitative Western blot analysis with antibodies specific for the HCV NS5A or other non-structural proteins. Actively dividing 9-13 replicon cells were seeded into 6-well plates at a density of 1×10^5 cells/well in a volume of 2 ml/well and incubated at 37° C. and 5% CO2 for 24 hours. Various concentrations of test prodrugs (in a volume of 10 ul) were added to the wells and the cells incubated for another 48 hours. Protein samples were prepared from the cultured cells, resolved on a SDS-PAGE gel and transferred to a nitrocellulose membrane. The membrane was blocked with 5% non-fat milk in PBS for 1 hour at room temperature. Primary antibody (anti NS5A antibody; BIODESIGN International, Saco, Me.) incubation was performed for 1 hour at room temperature, after which the membrane was washed 3 times (for 15 min per time) with PBST (PBS plus 0.1% Tween 20). Horseradish peroxidase conjugated secondary antibody incubation was performed for 1 hour at room temperature and the membrane was washed 3 times (for 15 min per time) with PBST. The membrane was then soaked in substrate solution (Pierce) and exposed to a film or quantified using an imager. In this assay, the amount of test prodrug that is believed to be transformed into an active agent under the given conditions that yielded a 50% reduction in the amount of NS5A protein translated as compared to a control sample (IC50) was determined.

A short description of data set [3]: Rat pharmacokinetic study, portal and jugular vein cannula, oral administration. Type of data set: in vivo. Here is the method: Pharamcokinetic studies were conducted in rats containing surgically implanted cannula in the portal and jugular veins. Blood samples were taken simultaneously from both cannula at various times after oral administration of the compounds. In the portal vein, the prodrugs are detected and, in some cases, the active compound, A-B-C-NHCOCHX2, has also been detected. The presence of active compound in the portal vein samples has been attributed to metabolism of the prodrug in transit through the gut wall. […] In the jugular samples, many, but not all, of the prodrugs have been detected in systemic circulation, depending on the hepatic extraction ratio of the prodrug.
Compounds were dissolved in a mixture of TPGS:PEG:PG (35%:60%:5%) and diluted with saline for oral administration. Typically, 6.5mg of compound was dissolved in 1 ml of the organic mixture and added to 5.5 ml of saline. Animals were dosed with 5 ml/kg of this mixture to give a typical dose of 5 mg/kg. All animal studies were conducted in male SpraqueDawley rats and the animals were fasted overnight prior to dose administration. Surgeries (to implant blood sampling cannula) were conducted at least two days prior to the study. […] Samples were centrifuged and the supernatant was analyzed by LC/MS/MS using the procedures outlined above. […]

Data set [4] in a line: Biliary excretion in rats after oral administration. Particulars: rat, four hours after oral administration. The format is in vivo. Here is the method:
Evidence for the conversion of prodrug 1107 to its active metabolite in rat liver was obtained by measuring prodrug and active compound concentrations in bile fluid.
Compounds were dissolved in a mixture of TPGS:PEG:PG (35%:60%:5%) and diluted with saline for oral administration. Typically, 6.5mg of compound was dissolved in 1 ml of the organic mixture and added to 5.5 ml of saline. Animals were dosed with 5 ml/kg of this mixture to give a typical dose of 5 mg/kg. All animal studies were conducted in male SpraqueDawley rats and the animals were fasted overnight prior to dose administration. Surgeries (to implant blood sampling cannula) were conducted at least two days prior to the study. Blood samples (100 μl) were collected using sodium heparin as anticoagulant and added to 300 μl of a mixture of acetate buffer (100 mM, pH=6.5):acetonitrile:ethanol:DMSO (2:1:1:2 v/v). Samples were centrifuged and the supernatant was analyzed by LC/MS/MS using the procedures outlined above. Standard were prepared similarly using fresh rat blood from naive animals.
Esterases are present in various tissues in the liver and may further degrade the active parent compound prior to reaching the HepC virus that is localized within hepatocyte cells. Experiments with radio-labeled the active parent compound indicate that the active parent compound is excreted from the body through bile (data not shown). […]

Setting [5] is: Table 14, read-out: HEPC_REPLICON-LUC Result Value.

As to `CC(C)(C)OP(=O)(Cc1ccc(CCCN(C(=O)C(Cl)Cl)c2ccnc(-c3cc(-c4c(Cl)cccc4Cl)no3)c2)cc1)OC(C)(C)C` [Cpd. 1041, Di-tert-Butyl 4-(3-(2,2-Dichloro-N-(2-(3-(2,6-dichlorophenyl)isoxazol-5-yl)pyridin-4-yl)acetamido)propyl)benzylphosphonate], the IC50 in data set [1] (setting [5]) and in data set [2] was 1000 to 20000 nM each time.
As to `CC(C)(C)c1oc(=O)oc1CN(C(=O)C(Cl)Cl)c1ccnc(-c2cc(-c3c(Cl)cccc3Cl)no2)c1` [Cpd. 1107, 2,2-dichloro-N-[2′-[3′-(2′,6′-dichlorophenyl)-5′-isoxazoyl](4-pyridyl)]-N-[(5-t-butyl-1,3-dioxolene-2-one4-yl)methylene] acetamide], the IC50 in data set [1] (Tables 3-12, 50% reduction in luciferase emission, 5-2 Luc replicon cells, read-out: Replicon (IC50)) is not above 10000 nM. Moreover, the Cmax in data set [3] (Sprague-Dawley, rat, whole blood, typical dose of 5 mg/kg, male rats, read-out: Rat PK Cmax, Prodrug) turned out to be 510 ng/mL. Further, the “Rat PK Hepatic extraction ratio of Prodrug” value in data set [3] (portal and jugular vein sampling) is given as 0.97. The “Prodrug and resultant active compound levels in bile fluid” value in data set [4] is “High levels”.
On to `O=C(c1cccc(-c2cc(-c3c(Cl)cccc3Cl)no2)c1)N(Cc1oc(=O)oc1COC1CC(O)C(O)C(CO)O1)C(=O)C(Cl)Cl` (stereo not drawn) [Cpd. 1044], for which the IC50 in data set [1] (setting [5]) and in data set [2] was less than 1000 nM each time.
Turning to `O=C(C(Cl)Cl)N(CCCc1ccc(N2CCNCC2)cc1)c1ccnc(-c2cc(-c3c(Cl)cccc3Cl)no2)c1` [Cpd. 1043, 2,2-Dichloro-N-(2-(3-(2,6-dichlorophenyl)isoxazol-5-yl)pyridin-4-yl)-N-(3-(4-(piperazin-1-yl)phenyl)propyl)acetamide], the IC50 in data set [1] (setting [5]) and in data set [2] was 1000 to 20000 nM throughout.
Turning to `CCN1CCN(c2ccc(CN(C(=O)C(Cl)Cl)c3ccnc(-c4cc(-c5c(Cl)cccc5Cl)no4)c3)cc2)CC1` [Cpd. 1023, 2,2-Dichloro-N-(2-(3-(2,6-dichlorophenyl)isoxazol-5-yl)pyridin-4-yl)-N-(4-(4-ethylpiperazin-1-yl)benzyl)acetamide], the IC50 in data set [2] was less than 1000 nM.
Regarding `CC(C)(C)OC(=O)N1CCN(c2ccc(CCCN(C(=O)C(Cl)Cl)c3ccnc(-c4cc(-c5c(Cl)cccc5Cl)no4)c3)cc2)CC1` [Cpd. 1039, tert-Butyl 4-(4-(3-(2,2-Dichloro-N-(2-(3-(2,6-dichlorophenyl)isoxazol-5-yl)pyridin-4yl)acetamido)propyl)phenyl)piperazine-1-carboxylate], the IC50 in data set [2] was more than 20000 nM.

The Cmax is the highest concentration seen after dosing.
